# Laboratory results taken from publication PMC12136037, “Type II kinase inhibitors that target Parkinson’s disease–associated LRRK2” (Science Advances, 2025).
# Assays:
# Experiment in all cases: DSF 100 kinase selectivity screen;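 note: compound tested at 20 µM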
# Type in all cases: binding
# [1] = target: T1, ~100 representative kinases (Homo sapiens, UniProt Q99640); conditions: protein PKMYT1; average of three replicates
# T1 construct: Recombinant protein kinase domains with a concentration of 2 μM
# T1 sequence (Q99640 1-499): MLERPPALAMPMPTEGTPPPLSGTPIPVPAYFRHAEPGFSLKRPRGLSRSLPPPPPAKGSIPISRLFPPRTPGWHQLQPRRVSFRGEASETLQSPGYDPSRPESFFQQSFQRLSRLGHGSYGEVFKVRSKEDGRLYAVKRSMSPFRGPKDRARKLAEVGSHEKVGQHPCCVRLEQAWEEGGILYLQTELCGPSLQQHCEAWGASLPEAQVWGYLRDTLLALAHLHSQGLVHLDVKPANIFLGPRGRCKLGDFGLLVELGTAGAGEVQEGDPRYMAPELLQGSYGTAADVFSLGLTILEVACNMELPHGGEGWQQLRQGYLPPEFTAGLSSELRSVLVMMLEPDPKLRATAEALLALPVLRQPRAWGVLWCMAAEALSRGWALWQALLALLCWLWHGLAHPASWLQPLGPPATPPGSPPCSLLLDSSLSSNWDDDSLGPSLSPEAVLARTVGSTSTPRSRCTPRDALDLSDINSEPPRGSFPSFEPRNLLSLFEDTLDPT
# Method in brief: (§1)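 Each kinase domain, at 2 μM, is mixed with 20 μM test compound and SYPRO Orange in Hepes (20 mM, pH 7.5) with 500 mM NaCl. Temperature is then raised at 3°C/min and fluorescence-monitored unfolding yields the melting temperature change, ΔTm in degrees Celsius.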
# [2] = target: T2, ~100 representative kinases (Homo sapiens, UniProt P07332); conditions: protein FESA; average of three replicates
# T2 construct: Recombinant protein kinase domains with a concentration of 2 μM
# T2 sequence (P07332 whole entry, the tested form may be a part): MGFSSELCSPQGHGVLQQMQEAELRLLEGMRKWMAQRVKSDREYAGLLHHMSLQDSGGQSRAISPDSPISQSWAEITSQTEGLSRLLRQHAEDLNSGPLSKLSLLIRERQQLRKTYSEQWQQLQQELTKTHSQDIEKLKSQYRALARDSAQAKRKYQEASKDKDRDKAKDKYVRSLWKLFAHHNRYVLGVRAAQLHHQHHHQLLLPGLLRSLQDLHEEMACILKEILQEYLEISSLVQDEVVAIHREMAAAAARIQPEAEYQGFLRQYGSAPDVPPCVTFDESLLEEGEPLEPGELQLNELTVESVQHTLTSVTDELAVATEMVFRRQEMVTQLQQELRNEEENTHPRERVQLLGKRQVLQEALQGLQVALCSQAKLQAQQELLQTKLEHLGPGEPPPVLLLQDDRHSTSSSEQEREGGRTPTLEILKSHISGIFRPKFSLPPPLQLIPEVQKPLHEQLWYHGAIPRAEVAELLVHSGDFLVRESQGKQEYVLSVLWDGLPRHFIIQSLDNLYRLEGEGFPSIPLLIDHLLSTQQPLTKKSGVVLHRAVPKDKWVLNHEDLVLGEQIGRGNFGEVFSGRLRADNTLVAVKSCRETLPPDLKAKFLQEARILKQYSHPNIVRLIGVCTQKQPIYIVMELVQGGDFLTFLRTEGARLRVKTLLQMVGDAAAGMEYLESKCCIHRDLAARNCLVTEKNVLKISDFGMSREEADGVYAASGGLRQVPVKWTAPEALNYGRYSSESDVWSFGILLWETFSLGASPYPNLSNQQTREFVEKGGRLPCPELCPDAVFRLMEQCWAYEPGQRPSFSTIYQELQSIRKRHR
# Method in brief: as §1
# [3] = target: T3, ~100 representative kinases (Homo sapiens, UniProt O14936); conditions: Protein CASK; average of three replicates
# T3 construct: Recombinant protein kinase domains with a concentration of 2 μM
# T3 sequence (O14936 1-926): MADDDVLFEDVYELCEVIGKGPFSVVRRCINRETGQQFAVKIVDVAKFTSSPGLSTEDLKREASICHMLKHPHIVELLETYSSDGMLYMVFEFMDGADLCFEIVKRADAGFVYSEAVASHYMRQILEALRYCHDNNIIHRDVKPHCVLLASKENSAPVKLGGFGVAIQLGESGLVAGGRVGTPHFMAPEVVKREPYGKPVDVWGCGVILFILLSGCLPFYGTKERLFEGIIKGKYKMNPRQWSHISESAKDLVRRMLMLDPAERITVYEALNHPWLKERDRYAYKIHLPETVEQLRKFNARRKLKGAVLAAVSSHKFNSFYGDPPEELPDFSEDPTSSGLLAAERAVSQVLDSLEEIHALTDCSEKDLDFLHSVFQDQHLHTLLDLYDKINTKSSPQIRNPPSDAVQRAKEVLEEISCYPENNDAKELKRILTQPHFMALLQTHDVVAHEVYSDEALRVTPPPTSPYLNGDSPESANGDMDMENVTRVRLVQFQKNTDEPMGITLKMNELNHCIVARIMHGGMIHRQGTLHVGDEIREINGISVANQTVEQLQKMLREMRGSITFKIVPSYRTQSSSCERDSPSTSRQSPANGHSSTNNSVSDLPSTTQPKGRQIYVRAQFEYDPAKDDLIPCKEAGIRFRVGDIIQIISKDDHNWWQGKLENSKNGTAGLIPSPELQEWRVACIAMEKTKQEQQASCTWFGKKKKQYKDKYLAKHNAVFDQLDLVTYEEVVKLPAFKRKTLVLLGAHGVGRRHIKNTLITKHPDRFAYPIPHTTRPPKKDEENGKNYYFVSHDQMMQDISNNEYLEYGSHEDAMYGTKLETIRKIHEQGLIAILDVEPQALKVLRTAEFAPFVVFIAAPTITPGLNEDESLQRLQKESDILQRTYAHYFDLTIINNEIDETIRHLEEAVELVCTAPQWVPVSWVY
# Method in brief: as §1
# [4] = target: T4, ~100 representative kinases (Homo sapiens, UniProt Q00536); conditions: protein PCTK1; average of three replicates
# T4 construct: Recombinant protein kinase domains with a concentration of 2 μM
# T4 sequence (Q00536 whole entry, the tested form may be a part): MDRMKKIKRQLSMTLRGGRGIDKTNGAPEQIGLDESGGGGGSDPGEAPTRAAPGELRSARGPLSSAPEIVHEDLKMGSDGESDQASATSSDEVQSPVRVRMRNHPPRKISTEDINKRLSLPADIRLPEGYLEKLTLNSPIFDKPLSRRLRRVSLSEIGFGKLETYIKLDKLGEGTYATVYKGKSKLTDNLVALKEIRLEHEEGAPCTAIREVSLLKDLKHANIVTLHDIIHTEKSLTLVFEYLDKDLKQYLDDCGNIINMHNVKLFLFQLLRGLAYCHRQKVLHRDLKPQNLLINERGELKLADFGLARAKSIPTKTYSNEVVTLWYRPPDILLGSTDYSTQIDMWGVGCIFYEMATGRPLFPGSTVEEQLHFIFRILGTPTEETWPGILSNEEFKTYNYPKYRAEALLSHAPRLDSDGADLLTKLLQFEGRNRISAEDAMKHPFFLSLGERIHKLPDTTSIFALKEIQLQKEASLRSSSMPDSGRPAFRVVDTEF
# Method in brief: as §1
# [5] = target: T5, ~100 representative kinases (Homo sapiens, UniProt P45984); conditions: protein MAPK9; average of three replicates
# T5 construct: Recombinant protein kinase domains with a concentration of 2 μM
# T5 sequence (P45984 whole entry, the tested form may be a part): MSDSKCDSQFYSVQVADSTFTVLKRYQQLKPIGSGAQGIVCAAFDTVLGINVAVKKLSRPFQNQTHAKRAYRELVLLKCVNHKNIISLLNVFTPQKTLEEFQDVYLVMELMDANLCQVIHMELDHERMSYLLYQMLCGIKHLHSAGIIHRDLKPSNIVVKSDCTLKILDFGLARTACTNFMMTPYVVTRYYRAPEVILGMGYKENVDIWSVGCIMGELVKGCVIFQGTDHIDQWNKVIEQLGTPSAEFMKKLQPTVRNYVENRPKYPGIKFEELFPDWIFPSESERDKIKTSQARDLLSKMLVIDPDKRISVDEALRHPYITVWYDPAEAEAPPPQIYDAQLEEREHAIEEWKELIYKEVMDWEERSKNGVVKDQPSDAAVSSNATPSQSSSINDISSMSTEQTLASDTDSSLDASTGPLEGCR
# Method in brief: as §1
# [6] = target: T6, ~100 representative kinases (Homo sapiens, UniProt Q13873); conditions: Protein BMPR2; average of three replicates
# T6 construct: Recombinant protein kinase domains with a concentration of 2 μM
# T6 sequence (Q13873 27-1038): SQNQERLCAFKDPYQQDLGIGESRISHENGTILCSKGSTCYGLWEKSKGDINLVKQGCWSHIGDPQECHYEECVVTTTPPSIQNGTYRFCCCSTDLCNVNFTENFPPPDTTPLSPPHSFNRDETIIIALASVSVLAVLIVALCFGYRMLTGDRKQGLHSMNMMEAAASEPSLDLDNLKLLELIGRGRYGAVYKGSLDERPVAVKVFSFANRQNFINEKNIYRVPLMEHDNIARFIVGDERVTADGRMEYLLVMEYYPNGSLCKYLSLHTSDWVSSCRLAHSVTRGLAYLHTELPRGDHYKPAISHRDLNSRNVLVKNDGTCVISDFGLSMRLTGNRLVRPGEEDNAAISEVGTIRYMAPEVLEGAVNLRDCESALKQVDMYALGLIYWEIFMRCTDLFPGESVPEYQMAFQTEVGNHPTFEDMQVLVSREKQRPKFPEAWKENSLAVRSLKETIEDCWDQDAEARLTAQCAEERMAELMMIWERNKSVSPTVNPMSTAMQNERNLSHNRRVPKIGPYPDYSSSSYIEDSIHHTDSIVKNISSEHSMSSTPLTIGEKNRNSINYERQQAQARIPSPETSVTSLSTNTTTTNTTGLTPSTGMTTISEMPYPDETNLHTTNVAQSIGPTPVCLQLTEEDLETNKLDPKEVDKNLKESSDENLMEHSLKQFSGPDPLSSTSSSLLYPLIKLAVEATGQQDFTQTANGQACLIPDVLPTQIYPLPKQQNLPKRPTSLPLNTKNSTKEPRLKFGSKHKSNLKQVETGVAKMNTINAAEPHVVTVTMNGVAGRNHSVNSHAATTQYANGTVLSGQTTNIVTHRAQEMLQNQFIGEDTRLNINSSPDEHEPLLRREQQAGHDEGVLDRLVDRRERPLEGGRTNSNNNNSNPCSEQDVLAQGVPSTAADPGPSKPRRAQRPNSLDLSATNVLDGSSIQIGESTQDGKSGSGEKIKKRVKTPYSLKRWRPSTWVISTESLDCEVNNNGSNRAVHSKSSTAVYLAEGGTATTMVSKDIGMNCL
# Method in brief: as §1
Compound,dTm [1] [K],dTm [2] [K],dTm [3] [K],dTm [4] [K],dTm [5] [K],dTm [6] [K]
C[C@@H]1CN(c2cc(-c3n[nH]c4ccc(OC5(C)CC5)cc34)ncn2)C[C@H](C)O1 [MLi2],-0.55,1.83,0.19,-0.14,0.30,0.0116
Cn1cc(-c2c[nH]c3ncnc(N4CCOCC4)c23)cc1C#N [PFE-360],0.19,0.78,0.12,0.35,0.17,2.89
"CNC(=O)c1cc(Oc2ccc(NC(=O)Nc3cc(C(C)(C)C)nn3-c3ccc4ncccc4c3)c(F)c2)ccn1 [Rebastinib, reference compound]",0.77,7.16,-12.03,13.62,9.78,-0.70
